Reference: patent US10590086B2, “Pharmaceutical compound” (IOmet Pharma Ltd., priority 2014, dated 2020)

What was measured:
IDO [1] = target: T1, IDO (Homo sapiens, UniProt P14902); assay: SKOV3 kynurenine cell-based assay (IDO induced by IFN-γ); set-up: IDO expression was induced in the SKOV3 cells by the addition of 500 ng/ml IFN-γ; endogenous in cells; host or cells: SKOV3 (human ovarian adenocarcinoma), induced with IFN-γ; settings: 48 hours, read-out: SKOV3 Kynurenine cell based assay pIC50 (converted)
How it was run: (§1)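 Cellular kynurenine production, TDO via A172 glioblastoma and IDO via IFN-γ-stimulated SKOV3 ovarian adenocarcinoma cells, was quantified after 48 hours' compound treatment in 500 μM L-tryptophan medium, using Erhlich's reagent and absorbance at 490 nm.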

IDO [2] = target: T1, IDO; assay: hIDO biochemical coupled assay; settings: 45 μM L-tryptophan, read-out: hIDO biochemical assay pIC50 (converted)
TDO [3] = target: T2, TDO (Homo sapiens, UniProt P48775); assay: A172 kynurenine cell-based assay; set-up: This assay utilised cancer cells which expressed either TDO or IDO; endogenous in cells; host or cells: A172 (human glioblastoma); settings: A172 human glioblastoma cells, 48 hours, read-out: A172 Kynurenine cell based assay pIC50 (converted)
How it was run: as §1

TDO [4] = target: T2, TDO; assay: hTDO biochemical coupled assay; settings: 330 μM L-tryptophan; for IC50: read-out: hTDO biochemical assay pIC50 (converted)
Source text: Two different assays were employed: 1. a cell-based assay for detecting the effect of test compounds on kynurenine production in two different cancer cell types. This assay utilised cancer cells which expressed either TDO or IDO and as such was used as a means of testing compound activity at these two enzymes in a cell-based context. 2. a TDO and IDO biochemical coupled assay which utilised recombinantly produced and purified TDO and IDO enzymes in combination with the enzyme formamidase. This coupled enzyme system allowed conversion of N-formylkynurenine produced by TDO or IDO activity to kynurenine which was then quantified by fluorescence following addition of Erhlich's Reagent The protocols for these are set out below.

[5] = SKOV3 human ovarian adenocarcinoma cells, 500 ng/ml IFN-γ, 500 μM L-tryptophan
[6] = SKOV3 cells, IDO induced by 500 ng/ml IFN-γ

T1 sequence (P14902 whole entry): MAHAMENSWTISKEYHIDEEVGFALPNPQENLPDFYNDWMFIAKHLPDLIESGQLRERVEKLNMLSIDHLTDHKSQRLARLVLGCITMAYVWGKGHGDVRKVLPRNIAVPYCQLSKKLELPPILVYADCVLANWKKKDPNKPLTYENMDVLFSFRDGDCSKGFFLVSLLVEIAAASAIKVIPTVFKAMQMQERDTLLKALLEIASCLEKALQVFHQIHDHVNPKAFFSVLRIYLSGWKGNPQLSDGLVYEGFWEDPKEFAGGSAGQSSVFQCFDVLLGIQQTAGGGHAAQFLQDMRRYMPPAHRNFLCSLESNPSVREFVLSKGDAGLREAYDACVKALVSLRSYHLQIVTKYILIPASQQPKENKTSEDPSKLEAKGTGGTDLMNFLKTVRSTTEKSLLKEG
T2 sequence (P48775 whole entry): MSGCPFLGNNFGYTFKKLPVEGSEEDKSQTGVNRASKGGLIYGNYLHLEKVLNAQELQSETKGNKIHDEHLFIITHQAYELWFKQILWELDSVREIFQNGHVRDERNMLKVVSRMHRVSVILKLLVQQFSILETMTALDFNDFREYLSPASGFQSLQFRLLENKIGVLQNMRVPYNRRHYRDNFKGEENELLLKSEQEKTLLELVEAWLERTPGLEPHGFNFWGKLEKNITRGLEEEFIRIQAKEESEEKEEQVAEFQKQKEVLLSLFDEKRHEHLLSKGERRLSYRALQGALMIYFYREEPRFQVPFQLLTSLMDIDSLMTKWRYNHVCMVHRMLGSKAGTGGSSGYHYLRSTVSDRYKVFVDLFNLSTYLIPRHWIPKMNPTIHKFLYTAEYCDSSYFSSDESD

## CS(=O)(=O)N1CCN(c2cccc3[nH]ncc23)CC1 [Compound 10]
IDO [1]; [5]
  IC50: 32.4 to 100 µM
IDO [2]; 17 minutes, room temperature
  IC50: > 100 µM
TDO [3]; 500 μM L-tryptophan
  IC50: 3.24 to 31.6 µM
TDO [4]; 17 minutes, room temperature
  IC50: 3.24 to 31.6 µM

## CC(=O)N1CCN(c2cccc3[nH]ncc23)CC1 [Compound 11]
IDO [1]; [5]
  IC50: 32.4 to 100 µM
IDO [2]; 17 minutes, room temperature
  IC50: > 100 µM
TDO [3]; 500 μM L-tryptophan
  IC50: 3.24 to 31.6 µM
TDO [4]; 17 minutes, room temperature
  IC50: 32.4 to 100 µM

## CS(=O)(=O)N1CCC(c2cccc3[nH]ncc23)CC1 [Compound 12]
IDO [1]; [5]
  IC50: > 100 µM
IDO [2]; 17 minutes, room temperature
  IC50: > 100 µM
TDO [3]; 500 μM L-tryptophan
  IC50: 3.24 to 31.6 µM
TDO [4]; 17 minutes, room temperature
  IC50: 3.24 to 31.6 µM

## CC(=O)N1CCC(c2cccc3[nH]ncc23)CC1 [Compound 14]
IDO [1]; [5]
  IC50: 32.4 to 100 µM
IDO [2]; 17 minutes, room temperature
  IC50: > 100 µM
TDO [3]; 500 μM L-tryptophan
  IC50: 3.24 to 31.6 µM
TDO [4]; 17 minutes, room temperature
  IC50: 32.4 to 100 µM

## O=S(=O)(c1ccccc1)N1CCN(c2cccc3[nH]ncc23)CC1 [Compound 15]
IDO [1]; [5]
  IC50: 32.4 to 100 µM
IDO [2]; 17 minutes, room temperature
  IC50: > 100 µM
TDO [3]; 500 μM L-tryptophan
  IC50: 3.24 to 31.6 µM
TDO [4]; 17 minutes, room temperature
  IC50: 32.4 to 100 µM

## O=S(=O)(C1CCCC1)N1CCN(c2cccc3[nH]ncc23)CC1 [Compound 17]
IDO [1]; [5]
  IC50: 32.4 to 100 µM
IDO [2]; 17 minutes, room temperature
  IC50: > 100 µM
TDO [3]; 500 μM L-tryptophan
  IC50: 3.24 to 31.6 µM
TDO [4]; 17 minutes, room temperature
  IC50: 3.24 to 31.6 µM

## O=S(=O)(C1CC1)N1CCN(c2cccc3[nH]ncc23)CC1 [Compound 19]
IDO [1]; [5]
  IC50: 32.4 to 100 µM
IDO [2]; 17 minutes, room temperature
  IC50: > 100 µM
TDO [3]; 500 μM L-tryptophan
  IC50: 3.24 to 31.6 µM
TDO [4]; 17 minutes, room temperature
  IC50: 3.24 to 31.6 µM

## CN(C)S(=O)(=O)N1CCN(c2cccc3[nH]ncc23)CC1 [Compound 21]
IDO [1]; [5]
  IC50: 32.4 to 100 µM
IDO [2]; 17 minutes, room temperature
  IC50: > 100 µM
TDO [3]; 500 μM L-tryptophan
  IC50: 3.24 to 31.6 µM
TDO [4]; 17 minutes, room temperature
  IC50: 3.24 to 31.6 µM

## CC(C)S(=O)(=O)N1CCN(c2cccc3[nH]ncc23)CC1 [Compound 22]
IDO [1]; [5]
  IC50: 32.4 to 100 µM
IDO [2]; 17 minutes, room temperature
  IC50: > 100 µM
TDO [3]; 500 μM L-tryptophan
  IC50: 3.24 to 31.6 µM
TDO [4]; 17 minutes, room temperature
  IC50: 3.24 to 31.6 µM

## CC(=O)N1CCN(c2cccc3[nH]ncc23)CC1(C)C [Compound 25]
IDO [1]; [5]
  IC50: 3.24 to 31.6 µM
IDO [2]; 17 minutes, room temperature
  IC50: 32.4 to 100 µM
TDO [3]; 500 μM L-tryptophan
  IC50: < 3.16 µM
TDO [4]; 17 minutes, room temperature
  IC50: < 3.16 µM

## CC1(C)CN(c2cccc3[nH]ncc23)CCN1S(C)(=O)=O [Compound 26]
IDO [1]; [5]
  IC50: 3.24 to 31.6 µM
IDO [2]; 17 minutes, room temperature
  IC50: 3.24 to 31.6 µM
TDO [3]; 500 μM L-tryptophan
  IC50: < 3.16 µM
TDO [4]; 17 minutes, room temperature
  IC50: < 3.16 µM

## CS(=O)(=O)N1CCN(c2cc(Cl)cc3[nH]ncc23)CC1 [Compound 28, 6-chloro-4-(4-(methylsulfonyl)piperazin-1-yl)-1H-indazole]
IDO [1]; [6]
  IC50: 10.5 µM
IDO [1]; [5]
  IC50: 3.24 to 31.6 µM
IDO [2]; 17 minutes, room temperature
  IC50: 3.24 to 31.6 µM
IDO [2]
  IC50: 22.4 µM
TDO [3]; 500 μM L-tryptophan
  IC50: < 3.16 µM
TDO [3]
  IC50: 0.339 µM
TDO [4]
  hTDO biochemical assay pIC50: 6.34
TDO [4]; 17 minutes, room temperature
  IC50: < 3.16 µM

## Cc1cc(C2CCN(S(C)(=O)=O)CC2)c2cn[nH]c2c1 [Compound 30]
IDO [1]; [5]
  IC50: 3.24 to 31.6 µM
IDO [2]; 17 minutes, room temperature
  IC50: < 3.16 µM
TDO [3]; 500 μM L-tryptophan
  IC50: < 3.16 µM
TDO [4]; 17 minutes, room temperature
  IC50: < 3.16 µM

## c1ccc(CNc2cccc3[nH]ncc23)cc1 [Compound 34]
IDO [1]; [5]
  IC50: 32.4 to 100 µM
IDO [2]; 17 minutes, room temperature
  IC50: > 100 µM
TDO [3]; 500 μM L-tryptophan
  IC50: 32.4 to 100 µM
TDO [4]; 17 minutes, room temperature
  IC50: 3.24 to 31.6 µM

## c1ccc(Nc2cccc3[nH]ncc23)cc1 [Compound 36]
IDO [1]; [5]
  IC50: > 100 µM
IDO [2]; 17 minutes, room temperature
  IC50: > 100 µM
TDO [3]; 500 μM L-tryptophan
  IC50: 3.24 to 31.6 µM
TDO [4]; 17 minutes, room temperature
  IC50: < 3.16 µM

## CS(=O)(=O)N1CCC(c2cc(Cl)cc3[nH]ncc23)CC1 [Compound 40, 6-chloro-4-(1-(methylsulfonyl)piperidin-4-yl)-1H-indazole]
IDO [1]; [6]
  IC50: 8.32 µM
IDO [1]; [5]
  IC50: 3.24 to 31.6 µM
IDO [2]; 17 minutes, room temperature
  IC50: < 3.16 µM
IDO [2]
  IC50: 2.34 µM
TDO [3]; 500 μM L-tryptophan
  IC50: < 3.16 µM
TDO [3]
  IC50: 0.0832 µM
TDO [4]; 17 minutes, room temperature
  IC50: < 3.16 µM
TDO [4]
  IC50: 0.302 µM

## CC(=O)N1CCN(c2ccc3[nH]ncc3c2)CC1 [Compound 41]
IDO [1]; [5]
  IC50: > 100 µM
IDO [2]; 17 minutes, room temperature
  IC50: > 100 µM
TDO [3]; 500 μM L-tryptophan
  IC50: 3.24 to 31.6 µM
TDO [4]; 17 minutes, room temperature
  IC50: 32.4 to 100 µM

## CC1(C)CN(c2cc(Cl)cc3[nH]ncc23)CCN1S(C)(=O)=O [Compound 45, 6-chloro-4-(3,3-dimethyl-4-(methylsulfonyl)piperazin-1-yl)-1H-indazole]
IDO [1]; [6]
  IC50: 0.372 µM
IDO [1]; [5]
  IC50: < 3.16 µM
IDO [2]; 17 minutes, room temperature
  IC50: < 3.16 µM
IDO [2]
  IC50: 0.447 µM
TDO [3]; 500 μM L-tryptophan
  IC50: < 3.16 µM
TDO [3]
  IC50: 0.01 µM
TDO [4]; 17 minutes, room temperature
  IC50: < 3.16 µM
TDO [4]
  IC50: 0.263 µM

## CC1(C)CN(c2cc(C(F)(F)F)cc3[nH]ncc23)CCN1S(C)(=O)=O [Compound 78]
IDO [1]; [5]
  IC50: < 3.16 µM
IDO [2]; 17 minutes, room temperature
  IC50: 3.24 to 31.6 µM
TDO [3]; 500 μM L-tryptophan
  IC50: < 3.16 µM
TDO [4]; 17 minutes, room temperature
  IC50: < 3.16 µM

## CC1(C)CN(c2cc(Br)cc3[nH]ncc23)CCN1S(C)(=O)=O [Compound 91]
IDO [1]; [5]
  IC50: < 3.16 µM
IDO [2]; 17 minutes, room temperature
  IC50: < 3.16 µM
TDO [3]; 500 μM L-tryptophan
  IC50: < 3.16 µM
TDO [4]; 17 minutes, room temperature
  IC50: < 3.16 µM

## CS(=O)(=O)NC1CCN(c2cc(Cl)cc3[nH]ncc23)CC1 [Compound 97]
IDO [1]; [5]
  IC50: 32.4 to 100 µM
IDO [2]; 17 minutes, room temperature
  IC50: 3.24 to 31.6 µM
TDO [3]; 500 μM L-tryptophan
  IC50: < 3.16 µM
TDO [4]; 17 minutes, room temperature
  IC50: < 3.16 µM
